According to patent US8278290B2, “Tubulin polymerisation inhibitors” (Biononics Limited, priority 2005, dated 2012):
Values joined by “and” are separate entries in the source; they are usually repeats but may differ in a detail not shown here. Identical values can stand only once.

Experiments:
[1] = system: MCF-7, cancer cell line; test: MCF-7 growth inhibition (SRB or Sysmex cell counting); format: cell-based; details: SRB or CC assay
[2] = system: Human umbilical vein endothelial cells; test: Proliferation Assay - activated endothelium (MTT); format: cell-based; details: HUVEC, range within which the IC50 value falls, 48 hrs culture, read-out: Inhib activated HUVECs IC50
Procedure: Proliferation Assay—activated endothelium: Human umbilical vein endothelial cells (CC-2519, Clonetics) were plated at 2500 cells/well in EGM2 (CC-3162, Clonetics) in a 96 well plate in triplicate. Cells were cultured overnight at 37° C. 5% CO2. Medium was subsequently replaced with fresh medium including the compound or negative control. Cells were cultured for a period of 48 hrs. An MTT assay was performed to measure changes in cell numbers. Briefly, 20 μl of MTT reagent was added to cells containing 100 μl of EGM2 and incubated at 37° C. for 2 hours. Absorbance was measured at 492 nm.

[3] = Homo sapiens, MCF7, concentration required to inhibit net cell growth by 50%
[4] = concentration required to inhibit net cell growth by 50%

Row | Compound | IC50 [1, 3] [nM] | IC50 [1, 4] | IC50 [2] [nM]
1 | COc1cc(C(=O)c2c(-c3cnn(Cc4ccccc4)c3)oc3c(O)c(OC)ccc23)cc(OC)c1OC [Entry 15] | 4.1 | 3.3 nM | 
2 | COc1ccc(/C=C\c2cc(OC)c(OC)c(OC)c2)cc1O [Entry 1, reference compound] |  |  | 1 to 10
3 | COc1ccc(-c2oc3c(OP(=O)(O)O)c(OC)ccc3c2C(=O)c2cc(OC)c(OC)c(OC)c2)cc1 [Entry 8, reference compound] | 3.6 | 4.2 nM and 6 nM and 4.7 nM | 
4 | COc1cc(C(=O)c2c(-c3ccco3)oc3c(OP(=O)(O)O)c(OC)ccc23)cc(OC)c1OC [Entry 47, 7-(O-disodiumphosphate)-2-(2-furyl)-6-methoxy-3-(3,4,5-trimethoxybenzoyl)benzo-[b]furan] | 0.26 | 0.31 nM | 
5 | COc1cc(C(=O)c2c(-c3cnn(C)c3)oc3c(F)c(OC)ccc23)cc(OC)c1OC [Entry 41] | 4.2 | 3.6 nM | 1 to 10
6 | COc1ccc2c(C(=O)c3cc(OC)c(OC)c(OC)c3)c(-c3ccco3)oc2c1 [Entry 52, 2-(2-Furyl)-6-methoxy-3-(3,4,5-trimethoxybenzoyl)benzo[b]furan] | 6.9 | 7.9 nM | 1 to 10
7 | COc1cc(C(=O)c2c(-c3cccs3)oc3c(O)c(OC)ccc23)cc(OC)c1OC [Entry 28, 7-Hydroxy-2-(2-thiophenyl)-3-(3,4,5-trimethoxybenzoyl)-6-methoxy-benzo[b]furan] | < 1 |  | 0.1 to 1
8 | COc1ccc2c(/C(=N/Nc3ccc([N+](=O)[O-])cc3[N+](=O)[O-])c3cc(OC)c(OC)c(OC)c3)c(-c3cnn(C)c3)oc2c1 [Entry 56, (E/Z)-6-Methoxy-2-(1-methyl-1H-pyrazol-4-yl)-3-(3,4,5-trimethoxybenzoyl)benzo[b]furan 2,4-dinitrophenylhydrazone] | > 1000 |  | 100 to 1000
9 | COc1cc(C(=O)c2c(-c3nccs3)oc3c(OP(=O)(O)O)c(OC)ccc23)cc(OC)c1OC [Entry 48, 2-(2-Thiazolyl)-7-O-disodiumphosphate-6-methoxy-3-(3,4,5-trimethoxybenzoyl)-benzo[b]furan] | 0.53 | 0.4 nM | 
10 | COc1ccc2c(C(=O)c3cc(OC)c(OC)c(OC)c3)c(-c3cnn(C)c3)[nH]c2c1 [Entry 19, [6-Methoxy-2-(1-methyl-1H-pyrazol-4-yl)-1H-indol-3-yl]-(3,4,5-trimethoxyphenyl)-methanone] | 12 |  | 10 to 100
11 | COc1cc(C(=O)c2coc3c(OP(=O)(O)O)c(OC)ccc23)cc(OC)c1OC [Entry 9, reference compound] | 41 | 82 nM | 
12 | COc1cc(C(=O)c2c(-n3cncn3)oc3c(O)c(OC)ccc23)cc(OC)c1OC [Entry 43, 2-(1,2,4-triazol-1-yl)-7-hydroxy-3-(3,4,5-trimethoxybenzoyl)-6-methoxy-benzo[b]furan] | 0.37 | 0.32 nM | 0.1 to 1
13 | COc1cc(C(=O)c2c(-n3ccnn3)oc3c(O)c(OC)ccc23)cc(OC)c1OC [Entry 35, 2-(1N-1,2,3-triazolyl)-7-hydroxy-3-(3,4,5-trimethoxybenzoyl)-6-methoxy-benzo[b]furan] |  |  | 1 to 10
14 | COc1cc(C(=O)c2c(-c3cnn(CC(N)=O)c3)oc3c(O)c(OC)ccc23)cc(OC)c1OC [Entry 51, 2-{4-[7-Hydroxy-6-methoxy-3-(3,4,5-trimethoxybenzoyl)-benzofuran-2-yl]-pyrazol-1-yl}-acetamide] |  |  | 0.1 to 1

The next lines start with results.

Row | IC50 [1, 3] [nM] | IC50 [1, 4] | Compound | IC50 [2] [nM]
15 | 1.6 | < 1 nM | COc1cc(C(=O)c2c(-n3ccnc3)oc3c(O)c(OC)ccc23)cc(OC)c1OC [Entry 27, 2-(N-imidazolyl)-7-hydroxy-3-(3,4,5-trimethoxybenzoyl)-6-methoxy-benzo[b]furan] | 1 to 10
16 | 68 | 57 nM | COc1cc(C(=O)c2c(-c3c(C)noc3C)oc3c(O)c(OC)ccc23)cc(OC)c1OC [Entry 25, 2-(3,5-dimethylisoxazol-4-yl)-7-hydroxy-3-(3,4,5-trimethoxy-benzoyl)-6-methoxybenzo[b]furan] | 10 to 100
17 | 3.6 | 4 nM | COc1ccc2c(C(=O)c3cc(OC)c(OC)c(OC)c3)c(-c3cn[nH]c3)oc2c1 [Entry 32, 6-Methoxy-2-(1H-pyrazol-4-yl)-3-(3,4,5-trimethoxybenzoyl)benzo[b]furan] | 1 to 10
18 | 40 | 35 nM | COc1ccc2c(C(=O)c3cc(OC)c(OC)c(OC)c3)c(-c3cn(C)cn3)oc2c1 [Entry 39, [2-(1-methyl-1H-Imidazol-4-yl)-6-methoxy-benzofuran-3-yl]-(3,4,5-trimethoxyphenyl)-methanone] | 10 to 100
19 | 0.1 to 1 |  | COc1cc(Sc2c(-c3cnn(C)c3)oc3c(N)c(OC)ccc23)cc(OC)c1OC [Entry 54, 7-Amino-6-methoxy-2-(1-methyl-1H-pyrazol-4-yl)-3-(3,4,5-trimethoxyphenylthio)benzo[b]furan] | 1 to 10
20 | 540 | 600 nM | COc1cc(C(=O)c2c(-c3cnn(C)c3)oc3c2ccc2ocnc23)cc(OC)c1OC [Entry 33] | 100 to 1000
21 | 3 | 3.4 nM | COc1cc(C(=O)c2c(-c3cn[nH]c3)oc3c(O)c(OC)ccc23)cc(OC)c1OC [Entry 16, [7-Hydroxy-6-methoxy-2-(1H-pyrazol-4-yl)-benzofuran-3-yl]-(3,4,5-trimethoxyphenyl)-methanone] | 1 to 10
22 | 1.4 | 2.1 nM | COc1cc(C(=O)c2c(-n3cccc3)oc3c(O)c(OC)ccc23)cc(OC)c1OC [Entry 38, 2-(1-pyrolyl)-7-hydroxy-3-(3,4,5-trimethoxybenzoyl)-6-methoxy-benzo[b]furan] | 1 to 10
23 | 62 | 31 nM | COc1cc(C(=O)c2coc3c(O)c(OC)ccc23)cc(OC)c1OC [Entry 7, reference compound] | 10 to 100
24 |  | 1.4 nM and 2.2 nM | 2-Imidazol-1-yl-7-O-bis-(triethylammonium)phosphate-6-methoxy-3-(3,4,5-trimethoxybenzoyl)-benzo[b]furan [Entry 49] | 
25 | 360 | 350 nM | COc1ccc(-n2cc(-c3oc4cc(OC)ccc4c3C(=O)c3cc(OC)c(OC)c(OC)c3)cn2)cc1 [Entry 40, {6-Methoxy-2-[1-(4-methoxy-phenyl)-1H-pyrazol-4-yl]-benzofuran-3-yl}-(3,4,5-trimethoxyphenyl)-methanone] | 100 to 1000
26 | 900 | 540 nM | COc1ccc2c(C(=O)c3cc(OC)c(OC)c(OC)c3)c(-c3cnn(CC(=O)O)c3)oc2c1 [Entry 29, Sodium {4-[6-Methoxy-3-(3,4,5-trimethoxy-benzoyl)-benzo[b]furan-2-yl]-pyrazol-1-yl}-acetate] | 100
27 | 110 | 83 nM | COc1ccc2c(C(=O)c3cc(OC)c(OC)c(OC)c3)c(-c3cnn(Cc4ccccc4)c3)oc2c1 [Entry 17, [2-(1-Benzyl-1H-pyrazol-4-yl)-6-methoxy-benzofuran-3-yl]-(3,4,5-trimethoxyphenyl)-methanone] | 100 to 1000
28 | 29 | 15 nM | CCOC(=O)Cn1cc(-c2oc3cc(OC)ccc3c2C(=O)c2cc(OC)c(OC)c(OC)c2)cn1 [Entry 30, {4-[6-Methoxy-3-(3,4,5-trimethoxy-benzoyl)-benzofuran-2-yl]-pyrazol-1-yl}-acetic acid ethyl ester] | 10 to 100
29 | 33 | 40 nM | COc1cc(C(=O)c2c(-c3cnn(C)c3)oc3c([N+](=O)[O-])c(OC)ccc23)cc(OC)c1OC [Entry 20, [6-Methoxy-7-nitro-2-(1-methyl-1H-pyrazol-4-yl)-benzofuran-3-yl]-(3,4,5-trimethoxyphenyl)-methanone] | 10 to 100
30 | 200 | 230 nM | COc1ccc2c(C(=O)c3cc(OC)c(OC)c(OC)c3)c(N3CCN(C)CC3)oc2c1 [Entry 46, 2-(4-N-Methylpiperazino)-3-(3,4,5-trimethoxybenzoyl)-6-methoxy-benzo[b]furan] | 100 to 1000
31 | 3.5 | 2.4 nM | COc1cc(C(=O)c2c(-n3cccn3)oc3c(O)c(OC)ccc23)cc(OC)c1OC [Entry 34, 2-(N-pyrazolyl)-7-hydroxy-3-(3,4,5-trimethoxybenzoyl)-6-methoxy-benzo[b]furan] | 100 to 1000
32 | 3.8 | 4 nM | COc1ccc2c(C(=O)c3cc(OC)c(OC)c(OC)c3)c(-c3cnn(CC(N)=O)c3)oc2c1 [Entry 31, 2-{4-[6-Methoxy-3-(3,4,5-trimethoxy-benzoyl)-benzo[b]furan-2-yl]-pyrazol-1-yl}-acetamide] | 1 to 10
33 | 100 to 1000 |  | COc1ccc2c(/C(=N/O)c3cc(OC)c(OC)c(OC)c3)c(-c3cnn(C)c3)oc2c1 [Entry 55, (E/Z)-6-methoxy-2-(1-methyl-1H-pyrazol-4-yl)-3-(3,4,5-trimethoxybenzoyl)benzo[b]furan oxime] | 100 to 1000
34 | 7.8 | 8.1 nM | COc1cc(C(=O)c2c(-c3cnn(CC(N)=O)c3)oc3c(F)c(OC)ccc23)cc(OC)c1OC [Entry 53, 2-{4-[7-Fluoro-6-methoxy-3-(3,4,5-trimethoxybenzoyl)benzofuran-2-yl]-1H-pyrazol-1-yl}acetamide] | 0.1 to 1
35 | 25 | 29 nM | COc1cc(C(=O)c2c(-c3cnn(C)c3)oc3c(O)c(OC)ccc23)cc(OC)c1O [Entry 22] | 
36 | 48 | 35 nM | COc1cc(C(=O)c2c(-c3cnn(C)c3)oc3c(OC(C)C)c(OC)ccc23)cc(OC)c1OC [Entry 13] | 
